Experimental data reported in US20080145313A1, “Compositions and Methods for the Treatment and Prevention of Neoplastic Disorders” (Genesis Research & Development Corporation Limited, priority 2006, published 2008).

test system: A549 cells; assay: Growth inhibition of siRNA-transfected A549 cells, SYBR Green I DNA content; assay type: cell-based, human; conditions: 10 nM siRNA; DNA content 96 hours after transfection
In short: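 Growth read-out: cellular DNA quantified with SYBR Green I (485/535 nm) 96 h after transfection, cells frozen, thawed and lysed in PBS/1% Triton X-100, pH 7. Cells (A549, 5×10^3 cells/cm^2) received 10 nM siRNA by RNAiMAX; non-specific siRNA served as control; triplicate wells averaged.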

“SEQ ID NO: 4875: siRNA targeting CTPS (chain 1 AATAACACACACTTGAGGTTCCAGG; chain 2 AAUAACACACACUUGAGGUUCCAGG; Both strands are one antisense strand in DNA/RNA notation, chemistry not given here, further chemistry not given here; one strand in two spellings)” was tested. Which “Growth Inhibition in A549 cells” value did it give?
The value was “++ (inhibits by at least 75%)”.

With “SEQ ID NO: 4876: siRNA targeting CTPS (chain 1 ATAAAGGGCATGCTTTCTATGTCCC; chain 2 AUAAAGGGCAUGCUUUCUAUGUCCC; Both strands are one antisense strand in DNA/RNA notation, chemistry not given here, further chemistry not given here; one strand in two spellings)” as the substance, how does the “Growth Inhibition in A549 cells” value read?
The value was “− (no growth inhibition with any siRNA)”.

“SEQ ID NO: 4877: siRNA targeting CTPS (chain 1 AGCACCTGCATACAACCAGATCTGG; chain 2 AGCACCUGCAUACAACCAGAUCUGG; Both strands are one antisense strand in DNA/RNA notation, chemistry not given here, further chemistry not given here; one strand in two spellings)” was tested. Which “Growth Inhibition in A549 cells” value did it give?
Its value is “+ (inhibits by at least 50%)”.

How did the “Growth Inhibition in A549 cells” value turn out when “SEQ ID NO: 4878: siRNA targeting IMPDH2 (chain 1 AAATTTGTGGATTGACCCTTTGTCC; chain 2 AAAUUUGUGGAUUGACCCUUUGUCC; Both strands are one antisense strand in DNA/RNA notation, chemistry not given here, further chemistry not given here; one strand in two spellings)” was run?
Its value is “− (no growth inhibition with any siRNA)”.

“SEQ ID NO: 4880: siRNA targeting IMPDH2 (chain 1 TCCCTGTTCATATTTCTTCACTTTC; chain 2 UCCCUGUUCAUAUUUCUUCACUUUC; Both strands are one antisense strand in DNA/RNA notation, chemistry not given here, further chemistry not given here; one strand in two spellings)” was tested. Which “Growth Inhibition in A549 cells” value did it give?
The value was “+ (inhibits by at least 50%)”.

“SEQ ID NO: 4986: siRNA targeting DCK (chain 1 ACGATCTGTGTATAGTGACAGGTAT; chain 2 ACGAUCUGUGUAUAGUGACAGGUAU; Both strands are one antisense strand in DNA/RNA notation, chemistry not given here, further chemistry not given here; one strand in two spellings)” was tested. Which “Growth Inhibition in A549 cells” value did it give?
The value was “− (no growth inhibition with any siRNA)”.

With “SEQ ID NO: 4987: siRNA targeting DCK (chain 1 CAAGACTGGCATGACTGGATGAATA; chain 2 CAAGACUGGCAUGACUGGAUGAAUA; Both strands are one antisense strand in DNA/RNA notation, chemistry not given here, further chemistry not given here; one strand in two spellings)” as the substance, how does the “Growth Inhibition in A549 cells” value read?
The value was “− (no growth inhibition with any siRNA)”.

Which “Growth Inhibition in A549 cells” value does the source give for “SEQ ID NO: 4988: siRNA targeting DCK (chain 1 GCAAGGCATTCCTCTTGAATATTTA; chain 2 GCAAGGCAUUCCUCUUGAAUAUUUA; Both strands are one antisense strand in DNA/RNA notation, chemistry not given here, further chemistry not given here; one strand in two spellings)” here?
The value was “− (no growth inhibition with any siRNA)”.

“SEQ ID NO: 4989: siRNA targeting TK1 (chain 1 GCGTGGCTGTCATAGGCATCGACGA; chain 2 GCGUGGCUGUCAUAGGCAUCGACGA; chemistry not given here; one strand in two spellings)” was tested. Which “Growth Inhibition in A549 cells” value did it give?
Its value is “− (no growth inhibition with any siRNA)”.

“SEQ ID NO: 4990: siRNA targeting TK1 (chain 1 GACATCATGGAGTTCTGCGAGGCCA; chain 2 GACAUCAUGGAGUUCUGCGAGGCCA; chemistry not given here; one strand in two spellings)” was tested. Which “Growth Inhibition in A549 cells” value did it give?
The value was “− (no growth inhibition with any siRNA)”.

Which “Growth Inhibition in A549 cells” value does the source give for “SEQ ID NO: 4991: siRNA targeting TK1 (chain 1 GCACTGGATGGGACCTTCCAGAGGA; chain 2 GCACUGGAUGGGACCUUCCAGAGGA; chemistry not given here; one strand in two spellings)” here?
Its value is “− (no growth inhibition with any siRNA)”.

“SEQ ID NO: 4992: siRNA targeting TK2 (chain 1 GGGATCGAATATTAACTCCAGAGAA; chain 2 GGGAUCGAAUAUUAACUCCAGAGAA; chemistry not given here; one strand in two spellings)” was tested. Which “Growth Inhibition in A549 cells” value did it give?
The value was “− (no growth inhibition with any siRNA)”.

Which “Growth Inhibition in A549 cells” value does the source give for “SEQ ID NO: 4993: siRNA targeting TK2 (chain 1 GGAAGACGACATGCCTGGAATTCTT; chain 2 GGAAGACGACAUGCCUGGAAUUCUU; chemistry not given here; one strand in two spellings)” here?
The value was “− (no growth inhibition with any siRNA)”.

How did the “Growth Inhibition in A549 cells” value turn out when “SEQ ID NO: 4994: siRNA targeting TK2 (chain 1 CCTGAGACTTGTTACCAGAGGTTAA; chain 2 CCUGAGACUUGUUACCAGAGGUUAA; chemistry not given here; one strand in two spellings)” was run?
Its value is “− (no growth inhibition with any siRNA)”.

How did the “Growth Inhibition in A549 cells” value turn out when “SEQ ID NO: 4995: siRNA targeting DGUOK (chain 1 CCTCATGAGAGAGGTAAACACCTTT; chain 2 CCUCAUGAGAGAGGUAAACACCUUU; chemistry not given here; one strand in two spellings)” was run?
The value was “− (no growth inhibition with any siRNA)”.

How did the “Growth Inhibition in A549 cells” value turn out when “SEQ ID NO: 4996: siRNA targeting DGUOK (chain 1 CCTGCACTGCCCAAAGTCTTGGAAA; chain 2 CCUGCACUGCCCAAAGUCUUGGAAA; chemistry not given here; one strand in two spellings)” was run?
The value was “− (no growth inhibition with any siRNA)”.

For “SEQ ID NO: 4997: siRNA targeting DGUOK (chain 1 GCCAGGAAGCCAGTACAGATCTTTG; chain 2 GCCAGGAAGCCAGUACAGAUCUUUG; chemistry not given here; one strand in two spellings)”, which “Growth Inhibition in A549 cells” value is on record?
Its value is “+ (inhibits by at least 50%)”.

same assay, conditions: A549 cells, 10 nM siRNA, DNA content 96 hours after transfection, transporter gene targets

How did the “Growth Inhibition in A549 cells by 10 nM siRNA” value turn out when “SEQ ID NO: 4940: siRNA targeting ATP2B2 (PMCA2) (chain 1 TTCTTGTGCATGCTGGCCTTCTTCC; chain 2 UUCUUGUGCAUGCUGGCCUUCUUCC; chemistry not given here; one strand in two spellings)” was run?
The value was “++ (inhibits by at least 75%)”.

With “SEQ ID NO: 4941: siRNA targeting ATP2B2 (PMCA2) (chain 1 ATCTGTGTCTGGATCCGATTCAGGC; chain 2 AUCUGUGUCUGGAUCCGAUUCAGGC; chemistry not given here; one strand in two spellings)” as the substance, how does the “Growth Inhibition in A549 cells by 10 nM siRNA” value read?
The value was “+ (inhibits by at least 50%)”.

“SEQ ID NO: 4942: siRNA targeting ATP2B2 (PMCA2) (chain 1 TTCCAGGTCGGTGTCATCAATGAGG; chain 2 UUCCAGGUCGGUGUCAUCAAUGAGG; chemistry not given here; one strand in two spellings)” was tested. Which “Growth Inhibition in A549 cells by 10 nM siRNA” value did it give?
Its value is “− (no growth inhibition)”.

With “SEQ ID NO: 4943: siRNA targeting ATP2B3 (PMCA3) (chain 1 AAACGTCTCAATCACAAAGTAGAGG; chain 2 AAACGUCUCAAUCACAAAGUAGAGG; chemistry not given here; one strand in two spellings)” as the substance, how does the “Growth Inhibition in A549 cells by 10 nM siRNA” value read?
The value was “− (no growth inhibition)”.

“SEQ ID NO: 4944: siRNA targeting ATP2B3 (PMCA3) (chain 1 AAAGCTTGTCTTCCGGGATCTGCTC; chain 2 AAAGCUUGUCUUCCGGGAUCUGCUC; chemistry not given here; one strand in two spellings)” was tested. Which “Growth Inhibition in A549 cells by 10 nM siRNA” value did it give?
The value was “− (no growth inhibition)”.

Which “Growth Inhibition in A549 cells by 10 nM siRNA” value does the source give for “SEQ ID NO: 4945: siRNA targeting ATP2B3 (PMCA3) (chain 1 AATGTGTCCATGATCAAGTTCACCC; chain 2 AAUGUGUCCAUGAUCAAGUUCACCC; chemistry not given here; one strand in two spellings)” here?
Its value is “+ (inhibits by at least 50%)”.

Which “Growth Inhibition in A549 cells by 10 nM siRNA” value does the source give for “SEQ ID NO: 4949: siRNA targeting ATP6V1A (chain 1 TATAAATAGAGGCTTCTCTAGCAGC; chain 2 UAUAAAUAGAGGCUUCUCUAGCAGC; chemistry not given here; one strand in two spellings)” here?
Its value is “− (no growth inhibition)”.

How did the “Growth Inhibition in A549 cells by 10 nM siRNA” value turn out when “SEQ ID NO: 4950: siRNA targeting ATP6V1A (chain 1 TTTCATGGAGGAAAGTTTATAGAGG; chain 2 UUUCAUGGAGGAAAGUUUAUAGAGG; chemistry not given here; one strand in two spellings)” was run?
The value was “− (no growth inhibition)”.

Which “Growth Inhibition in A549 cells by 10 nM siRNA” value does the source give for “SEQ ID NO: 4951: siRNA targeting ATP6V1A (chain 1 AAATGGCTCCCATAATGCCAGGACC; chain 2 AAAUGGCUCCCAUAAUGCCAGGACC; chemistry not given here; one strand in two spellings)” here?
Its value is “+ (inhibits by at least 50%)”.

How did the “Growth Inhibition in A549 cells by 10 nM siRNA” value turn out when “SEQ ID NO: 4979: siRNA targeting ABCB1 (MDR1) (chain 1 TAATTATTCCTGTCCCAAGATTTGC; chain 2 UAAUUAUUCCUGUCCCAAGAUUUGC; chemistry not given here; one strand in two spellings)” was run?
Its value is “− (no growth inhibition)”.

For “SEQ ID NO: 4980: siRNA targeting ABCB1 (MDR1) (chain 1 TTCACCAAATGTGACATTTCCTTCC; chain 2 UUCACCAAAUGUGACAUUUCCUUCC; chemistry not given here; one strand in two spellings)”, which “Growth Inhibition in A549 cells by 10 nM siRNA” value is on record?
The value was “− (no growth inhibition)”.
